In paper PMC5365662, “A Short Double-Stapled Peptide Inhibits Respiratory Syncytial Virus Entry and Spreading” (Antimicrobial Agents and Chemotherapy, 2017):
Entries after “also recorded” stand apart in the source; their conditions may differ. Bridge positions count the residues as written; N and C are the ends. Square brackets hold non-standard residues; d marks the D form. Peptide text beside a SMILES is read from it. R5 = C=CCCC[C@@](C)(N)C(=O)O; S5 = C=CCCC[C@](C)(N)C(=O)O

Columns and labels:
[1] = test system: rHRSV-mCherry in HEp-2 cells; test: rHRSV-mCherry inhibition assay; type: cell-based, human respiratory syncytial virus
Method in brief: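 HEp-2 cells infected at MOI 0.2 with rHRSV-mCherry preincubated 15–20 min with serially diluted peptide, peptide kept in 2% FBS medium for 48 h at 37°C. Replication read as mCherry fluorescence (ex 580/em 620 nm), normalized to untreated infected cells; duplicates, curves fitted.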

[2] = type: in vivo; conditions: noninfected mice, same i.n. protocol, blood 1 month after first inoculation, ELISA, data not shown
Method: To investigate this further, peptide 4ca was administered to noninfected animals according to the same protocol. The blood of mice was collected 1 month after the first inoculation, and the presence of anti-4ca antibodies in the sera of these animals was analyzed by enzyme-linked immunosorbent assay (ELISA).

[3] = Far-UV circular dichroism, α-helical content; type: physicochemical; conditions: CD, 10 mM phosphate buffer pH 7.5, 50 μM peptide, 25°C
Method: The circular dichroism spectra were acquired on a Chirascan spectropolarimeter. The samples were prepared in 10 mM phosphate buffer, pH 7.5, at a peptide concentration of 50 μM. Data were recorded at 25°C by step scan from 180 nm to 260 nm in a 0.5-mm path length quartz cell using 1-nm wavelength increments and a response time of 1 s. The data were converted to per residue molar ellipticity units [θ] (degree per square centimeter per decimole per residue) and smoothed using the Igor Pro software. The percentage of helicity was calculated as described previously ([35]).

[4] = Temperature-dependent CD (T ramp), oligomeric state; type: physicochemical; conditions: 25 and 50 μM peptide, 25°C to 90°C in 5°C increments
Method: The temperature was increased from 25°C to 90°C in 5°C increments. […] Next, HEp-2 cells were infected with a recombinant RSV expressing the mCherry reported gene ([24]), and the inhibitory activity of the double-stapled peptides was quantified by fluorescence readout.
B) […]. The cell holding the sample was heating at the desired temperature and the CD spectra was measured as described in material and methods. The temperature was increased from 25 °C to 90 °C by 5 °C increments.
Panel C) and D) are the CD curve performed at 25 °C prior to increase the temperature (unheated) and after letting the sample heated at 90 °C (heated) cool down to 25 °C. […]

rHRSV-Luc = test: RSV infection of mice, intranasal treatment, in vivo luminescence; conditions: BALB/c, n = 4
Method: In order to track the infection, we used the recombinant virus rHRSV-Luc, which was previously shown to allow in vivo imaging studies of RSV replication and spreading and constitutes a powerful and convenient tool for the evaluation of drug efficiency against RSV in the mouse model ([24]). […] Mice were anesthetized at day 3 p.i. and observed alive using the IVIS imaging system 5 min after i.n. injection of D-luciferin. […] At day 3 p.i., a second dose of the peptide was administered to the mice, and the bioluminescence was measured at day 5 p.i. […]
Female BALB/c mice were purchased from the Centre d'Elevage R. Janvier (Le Genest Saint-Isle, France) and were used at 8 weeks of age. […] Luminescence measurement was then performed at day 5 p.i.
Mice were anesthetized, and luminescence was measured 5 min following i.n. injection of 50 μl of PBS containing 0.75 mg kg^−1 of body weight D-luciferin (Sigma). Photon emission of mock-infected and rHRSV-Luc-infected mice was measured using the IVIS 200 imaging system (Xenogen Corp.). […] Digital false-color photon emission images of mice were generated, and photons were counted within a constant region of interest corresponding to the surface of the chest encompassing the whole-airway area. Photon emission was measured as radiance in photons per second per square centimeter per steradian (p s^−1 cm^−2 sr^−1).

CC[C@H](C)[C@@H]1NC(=O)[C@H](Cc2ccccc2)NC(=O)[C@@](C)(NC(=O)[C@H](CC(C)C)NC(=O)[C@H](CO)NC(=O)[C@]2(C)CCCC=CCCC[C@@](C)(NC(=O)[C@H](CCC(=O)O)NC(C)=O)C(=O)N[C@@H]([C@@H](C)CC)C(=O)N[C@@H](CC(N)=O)C(=O)N2)CCCC=CCCC[C@@](C)(C(=O)N[C@@H](CO)C(=O)N[C@@H](CC(=O)O)C(=O)N[C@@H](CCC(=O)O)C(=O)N[C@@H](CC(C)C)C(=O)N[C@@H](CC(C)C)C(=O)N[C@@H](Cc2c[nH]cn2)C(=O)N[C@@H](CC(N)=O)C(=O)N[C@H](C(N)=O)C(C)C)NC(=O)[C@H](CCCNC(=N)N)NC1=O [Peptide 4ca] (Ac-E[R5]IN[S5]SL[S5]FIR[S5]SDELLHNV-NH2; staple 2-5, 8-12)
EC50 ([1]; HEp-2, rHRSV-mCherry MOI 0.2, addition of peptide after infection of cells, 48 h p.i.): 8.3 µM
EC50 ([1]; HEp-2, rHRSV-mCherry MOI 0.2, preincubation of the virus with peptide prior to cell infection, 48 h p.i.): 0.86 µM
EC50 ([1]; HEp-2, rHRSV-mCherry MOI 0.2, preincubation of virus with peptide and peptide maintained in medium after infection, 48 h p.i.): 0.47 µM
increase of antiviral potency relative to T118 ([1]; HEp-2, rHRSV-mCherry, EC50 versus T118 EC50 6.33 μM): 11 fold
EC50 ([1]; HEp-2 cells, RSV-Cherry MOI 0.2, peptide and virus removed after infection and fresh peptide added, mCherry fluorescence 48 h p.i., at least twice in duplicate): 0.59 ± 0.13 µM
EC50 ([1]; Table 3 (Ala scan), HEp-2 cells, rHRSV-mCherry MOI 0.2, 2-fold serial dilutions (11 dilutions), duplicate, ± SD of fit): 0.78 ± 0.06 µM
antibodies specific to 4ca in sera (anti-IgG1, anti-IgG2a, anti-IgA) [2]: no antibodies specific to 4ca could be detected
% Helicity ([3]; Table 2): >100%
% Helicity ([3]; Table 3 (Ala scan)): 85%
conformational change / aggregation on temperature ramping [4]: No significant conformational change; also recorded: does not aggregate
decrease of viral infection versus untreated mice (bioluminescence) (rHRSV-Luc; i.n. 50 μl at 50 μM in PBS at day 0 (10 min before rHRSV-Luc 5 × 10^4 PFU) and day 3, day 5 p.i.): 3 fold
bioluminescence in snout and lungs versus control mice (rHRSV-Luc; i.n. 50 μl at 50 μM in PBS, rHRSV-Luc 5 × 10^4 PFU, day 3 p.i.): clearly reduced
